Assay results: BigSolDB 2.1

c1ccc(P(c2ccccc2)c2ccccc2)cc1
Details | solubility (mole fraction)
in acetone, 303.2 K | 0.089
in acetone, 308.1 K | 0.12
in acetone, 313.4 K | 0.14
in acetone, 318.2 K | 0.19
in acetone, 323.5 K | 0.25
in acetone, 327.8 K | 0.33
in acetone, 333.1 K | 0.42
in benzene, 303.3 K | 0.069
in benzene, 308.6 K | 0.095
in benzene, 312.9 K | 0.12
in benzene, 318.1 K | 0.16
in benzene, 323.2 K | 0.22
in benzene, 328.1 K | 0.28
in benzene, 333.2 K | 0.37
in ethanol, 303.5 K | 0.0095
in ethanol, 308.3 K | 0.012
in ethanol, 313.3 K | 0.016
in ethanol, 318.6 K | 0.022
in ethanol, 323.2 K | 0.028
in ethanol, 327.9 K | 0.038
in ethanol, 333 K | 0.05
in isopropanol, 303.1 K | 0.0077
in isopropanol, 308.4 K | 0.01
in isopropanol, 313.3 K | 0.014
in isopropanol, 318.2 K | 0.019
in isopropanol, 322.9 K | 0.025
in isopropanol, 328.4 K | 0.033
in isopropanol, 333.2 K | 0.045
in toluene, 302.4 K | 0.05
in toluene, 308.2 K | 0.07
in toluene, 313.7 K | 0.1
in toluene, 318.2 K | 0.13
in toluene, 323.3 K | 0.18
in toluene, 328.3 K | 0.24
in toluene, 333.4 K | 0.32
